In US6156700A, “3-(1,2-Benzisothiazol- and isoxazol-5-yl)-2,4(1H,3H)-pyrimidinedione or thione and 3-(1,2-benzisothiazol- and isoxazol-5-yl)-4(3H)-pyrimidinone or thione herbicidal agents” (American Cyanmid Company, priority 1998, dated 2000):
Several values for one entry are separate records, joined by “and”; a condition that tells them apart may be missing. Equal entries are not always repeated.

Assays:
[1] = system: ZEAMX; experiment: Postemergence herbicidal evaluation; format: in vivo
[2] = system: AMBEL; experiment: Postemergence herbicidal evaluation; format: in vivo
[3] = system: ORYSAT; experiment: Preemergence herbicidal evaluation; format: in vivo, Oryza sativa; set-up: scale not given here
[4] = system: CHEAL; experiment: Postemergence herbicidal evaluation; format: in vivo
[5] = system: GALAP; experiment: Postemergence herbicidal evaluation; format: in vivo
[6] = system: ABUTH; experiment: Postemergence herbicidal evaluation; format: in vivo
[7] = system: ECHCG; experiment: Postemergence herbicidal evaluation; format: in vivo
[8] = system: GLXMA; experiment: Postemergence herbicidal evaluation; format: in vivo
[9] = system: IPOHE; experiment: Postemergence herbicidal evaluation; format: in vivo
[10] = system: CASOB; experiment: Postemergence herbicidal evaluation; format: in vivo
[11] = system: GLXMA; experiment: Preemergence herbicidal evaluation; format: in vivo
Procedure: The preemergence and postemergence herbicidal properties of certain compounds of the present invention are compared with certain compounds disclosed in U.S. Pat. Nos. 5,484,763 and 5,523,278. The evaluations are performed as described in Examples 185 and 186. Data in Tables V and VI are reported by the compound number given in Example 185 for the compounds of this invention or by comparative compound letter for the compounds disclosed in U.S. Pat. Nos. 5,484,763 and 5,523,278.

[12] = system: TRZAWR; experiment: Postemergence herbicidal evaluation; format: in vivo
[13] = system: ORYSAT; experiment: Postemergence herbicidal evaluation; format: in vivo, Oryza sativa
[14] = system: TRZAWR; experiment: Preemergence herbicidal evaluation; format: in vivo; set-up: scale not given here
[15] = system: IPOSS; experiment: Preemergence herbicidal evaluation; format: in vivo; set-up: scale not given here

Q: What does the source list for `O=C1C2=C(CCCC2)C(=O)N1c1ccc2snc(-c3ccccc3)c2c1` [A]?
A: herbicidal effect rating ([1]; 0.0313-0.0320 kg/ha): 4.0 and 3.4; herbicidal effect rating ([1]; 0.0625-0.0640 kg/ha): 3.7; herbicidal effect rating ([1]; 0.1250 kg/ha): 4.2; herbicidal effect rating ([1]; 0.2500 kg/ha): 3.8; herbicidal effect rating ([1]; 0.5000 kg/ha): 4.0; herbicidal effect rating ([2]; 0.0157-0.0160 kg/ha): 7.0 and 6.0; herbicidal effect rating ([2]; 0.0313-0.0320 kg/ha): 9.0 and 5.6; herbicidal effect rating ([2]; 0.0625-0.0640 kg/ha): 6.9; herbicidal effect rating ([2]; 0.1250 kg/ha): 7.0; herbicidal effect rating ([2]; 0.2500 kg/ha): 9.0; herbicidal effect rating ([2]; 0.5000 kg/ha): 9.0; herbicidal effect rating ([3]; 0.0156-0.0160 kg/ha): 0.0; herbicidal effect rating ([3]; 0.0620-0.0630 kg/ha): 0.5; herbicidal effect rating ([3]; 0.1250 kg/ha): 0.5; herbicidal effect rating ([3]; 0.2500 kg/ha): 3.0; herbicidal effect rating ([3]; 0.5000 kg/ha): 3.0; herbicidal effect rating ([4]; 0.0157-0.0160 kg/ha): 9.0 and 5.8; herbicidal effect rating ([4]; 0.0313-0.0320 kg/ha): 9.0 and 6.3; herbicidal effect rating ([4]; 0.0625-0.0640 kg/ha): 7.1; herbicidal effect rating ([4]; 0.1250 kg/ha): 7.9; herbicidal effect rating ([4]; 0.2500 kg/ha): 9.0; herbicidal effect rating ([4]; 0.5000 kg/ha): 9.0; herbicidal effect rating ([5]; 0.0157-0.0160 kg/ha): 5.5 and 3.8; herbicidal effect rating ([5]; 0.0625-0.0640 kg/ha): 5.4; herbicidal effect rating ([5]; 0.1250 kg/ha): 6.4; herbicidal effect rating ([5]; 0.2500 kg/ha): 8.3; herbicidal effect rating ([5]; 0.5000 kg/ha): 9.0; herbicidal effect rating ([6]; 0.0313-0.0320 kg/ha): 9.0 and 7.8; herbicidal effect rating ([6]; 0.0625-0.0640 kg/ha): 8.6; herbicidal effect rating ([6]; 0.1250 kg/ha): 9.0; herbicidal effect rating ([6]; 0.2500 kg/ha): 9.0; herbicidal effect rating ([6]; 0.5000 kg/ha): 9.0; herbicidal effect rating ([7]; 0.0157-0.0160 kg/ha): 1.0 and 0.5; herbicidal effect rating ([7]; 0.0313-0.0320 kg/ha): 1.0 and 0.6; herbicidal effect rating ([7]; 0.0625-0.0640 kg/ha): 1.0; herbicidal effect rating ([7]; 0.1250 kg/ha): 1.8; herbicidal effect rating ([7]; 0.2500 kg/ha): 2.7; herbicidal effect rating ([7]; 0.5000 kg/ha): 2.0; herbicidal effect rating ([8]; 0.0157-0.0160 kg/ha): 3.5; herbicidal effect rating ([8]; 0.0313-0.0320 kg/ha): 4.3; herbicidal effect rating ([9]; 0.0157-0.0160 kg/ha): 5.0; herbicidal effect rating ([9]; 0.0313-0.0320 kg/ha): 5.7; herbicidal effect rating ([9]; 0.0625-0.0640 kg/ha): 6.0; herbicidal effect rating ([9]; 0.1250 kg/ha): 7.5; herbicidal effect rating ([10]; 0.0625-0.0640 kg/ha): 7.9; herbicidal effect rating ([10]; 0.1250 kg/ha): 8.9; herbicidal effect rating ([10]; 0.2500 kg/ha): 9.0; herbicidal effect rating ([10]; 0.5000 kg/ha): 9.0; herbicidal effect rating ([11]; 0.0156-0.0160 kg/ha): 0.0; herbicidal effect rating ([11]; 0.0313-0.0320 kg/ha): 0.0; herbicidal effect rating ([12]; 0.0157-0.0160 kg/ha): 2; herbicidal effect rating ([12]; 0.0313-0.0320 kg/ha): 3.8; herbicidal effect rating ([12]; 0.0625-0.0640 kg/ha): 4.0; herbicidal effect rating ([12]; 0.1250 kg/ha): 4.3; herbicidal effect rating ([13]; 0.0157-0.0160 kg/ha): 2.0; herbicidal effect rating ([13]; 0.0313-0.0320 kg/ha): 2.3 and 2.1; herbicidal effect rating ([13]; 0.0625-0.0640 kg/ha): 2.6; herbicidal effect rating ([13]; 0.1250 kg/ha): 2.9; herbicidal effect rating ([13]; 0.2500 kg/ha): 3.6; herbicidal effect rating ([13]; 0.5000 kg/ha): 4.5; herbicidal effect rating ([14]; 0.0156-0.0160 kg/ha): 0.0; herbicidal effect rating ([14]; 0.0313-0.0320 kg/ha): 0.0; herbicidal effect rating ([14]; 0.0620-0.0630 kg/ha): 0.0; herbicidal effect rating ([14]; 0.1250 kg/ha): 0.0; herbicidal effect rating ([15]; 0.0156-0.0160 kg/ha): 0.0; herbicidal effect rating ([15]; 0.0313-0.0320 kg/ha): 0.0; herbicidal effect rating ([15]; 0.0620-0.0630 kg/ha): 0.0; herbicidal effect rating ([15]; 0.1250 kg/ha): 0.0; herbicidal effect rating ([15]; 0.2500 kg/ha): 0.0
